System: 695427-040-R-J1-PDC complex spheroids, viability percent T/C
Experiment: Anticancer human tumor 695427-040-R-J1-PDC patient-derived colon adenocarcinoma cell line growth inhibition [GQUAD]
Details: for IC50: curve of first compound; for viability, T/C: stronger effect = lower value
How it was run: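 Viability of tumor cells grown as complex spheroids with endothelial and stromal cells, exposed to drug combinations. Top concentration at or near clinical Cmax (else 10 microM), diluted in half-log increments.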

[1] = second compound 0.0316 µM, first compound 0.0316 µM
[2] = second compound 0.0316 µM, first compound 0.1 µM
[3] = second compound 0.0316 µM, first compound 0.316 µM
[4] = second compound 0.0316 µM, first compound 1 µM
[5] = second compound 0.0316 µM, first compound 3.16 µM
[6] = second compound 0.0316 µM, first compound 10 µM
[7] = second compound 0.1 µM, first compound 0.0316 µM
[8] = second compound 0.1 µM, first compound 0.1 µM
[9] = second compound 0.1 µM, first compound 0.316 µM
[10] = second compound 0.1 µM, first compound 1 µM
[11] = second compound 0.1 µM, first compound 3.16 µM
[12] = second compound 0.1 µM, first compound 10 µM
[13] = second compound 0.316 µM, first compound 0.0316 µM
[14] = second compound 0.316 µM, first compound 0.1 µM
[15] = second compound 0.316 µM, first compound 0.316 µM
[16] = second compound 0.316 µM, first compound 1 µM
[17] = second compound 0.316 µM, first compound 3.16 µM
[18] = second compound 0.316 µM, first compound 10 µM
[19] = second compound 1 µM, first compound 0.0316 µM
[20] = second compound 1 µM, first compound 0.1 µM
[21] = second compound 1 µM, first compound 0.316 µM
[22] = second compound 1 µM, first compound 1 µM
[23] = second compound 1 µM, first compound 3.16 µM
[24] = second compound 1 µM, first compound 10 µM
[25] = second compound 3.16 µM, first compound 0.0316 µM
[26] = second compound 3.16 µM, first compound 0.1 µM
[27] = second compound 3.16 µM, first compound 0.316 µM
[28] = second compound 3.16 µM, first compound 1 µM
[29] = second compound 3.16 µM, first compound 3.16 µM
[30] = second compound 3.16 µM, first compound 10 µM
[31] = second compound 10 µM, first compound 0.0316 µM
[32] = second compound 10 µM, first compound 0.1 µM
[33] = second compound 10 µM, first compound 0.316 µM
[34] = second compound 10 µM, first compound 1 µM
[35] = second compound 10 µM, first compound 3.16 µM
[36] = second compound 10 µM, first compound 10 µM
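Note: spheroids exposed to compounds for seven days before readout.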

Molecule `C=CCn1c(=O)c2cnc(Nc3ccc(N4CCN(C)CC4)cc3)nc2n1-c1cccc(C(C)(C)O)n1` + Cc1[nH]c2ccc(F)cc2c1-c1nc2c3cccnc3c3ncccc3c2[nH]1 has an IC50 (second compound 0.0316 µM) of 9.44 µM, an IC50 (second compound 0.1 µM) of 6.67 µM and an IC50 (second compound 0.316 µM) of 6.48 µM. It also gave an IC50 (second compound 1 µM) of 5.42 µM, an IC50 (second compound 3.16 µM) of 4.56 µM and an IC50 (second compound 10 µM) of 4.4 µM. It also gave a viability, T/C [1] of 102%, a viability, T/C [2] of 104% and a viability, T/C [3] of 94.3%. For the same molecule, the viability, T/C [4] was 108%, the viability, T/C [5] was 105% and the viability, T/C [6] was 47.1%. It also gave a viability, T/C [7] of 114%, a viability, T/C [8] of 99.8% and a viability, T/C [9] of 103%. It also gave a viability, T/C [10] of 113%, a viability, T/C [11] of 99.3% and a viability, T/C [12] of 23%. For the same molecule, the viability, T/C [13] was 105%, the viability, T/C [14] was 94.1% and the viability, T/C [15] was 95.6%. The viability, T/C [16] was 97.2%, the viability, T/C [17] was 95.6% and the viability, T/C [18] was 22.4%. For the same molecule, the viability, T/C [19] was 81.6%, the viability, T/C [20] was 88.2% and the viability, T/C [21] was 93.1%. For the same molecule, the viability, T/C [22] was 89.3%, the viability, T/C [23] was 79.8% and the viability, T/C [24] was 16%. For the same molecule, the viability, T/C [25] was 72%, the viability, T/C [26] was 72% and the viability, T/C [27] was 70.3%. The viability, T/C [28] was 64.8%, the viability, T/C [29] was 70.7% and the viability, T/C [30] was 7.06%. The viability, T/C [31] was 75.4%, the viability, T/C [32] was 76.8% and the viability, T/C [33] was 71.5%. It also gave a viability, T/C [34] of 71.5%, a viability, T/C [35] of 67.8% and a viability, T/C [36] of 6.01%.
In the case of `CC(C)(O)C1CCC(Nc2ccc3ncc(-c4cccc(C(F)(F)F)c4)n3n2)CC1` (stereo unspecified) + Cc1[nH]c2ccc(F)cc2c1-c1nc2c3cccnc3c3ncccc3c2[nH]1, the IC50 (second compound 0.0316 µM) is reported as > 10 µM, the IC50 (second compound 0.1 µM) is reported as > 10 µM and the IC50 (second compound 0.316 µM) is reported as > 10 µM. The IC50 (second compound 1 µM) was > 10 µM, the IC50 (second compound 3.16 µM) was > 10 µM and the IC50 (second compound 10 µM) was > 10 µM. It also gave a viability, T/C [1] of 109%, a viability, T/C [2] of 99.1% and a viability, T/C [3] of 109%. For the same molecule, the viability, T/C [4] was 95.6%, the viability, T/C [5] was 99.8% and the viability, T/C [6] was 82.5%. For the same molecule, the viability, T/C [7] was 110%, the viability, T/C [8] was 100% and the viability, T/C [9] was 103%. The viability, T/C [10] was 100%, the viability, T/C [11] was 100% and the viability, T/C [12] was 81.9%. The viability, T/C [13] was 101%, the viability, T/C [14] was 102% and the viability, T/C [15] was 97.6%. For the same molecule, the viability, T/C [16] was 93.2%, the viability, T/C [17] was 99.7% and the viability, T/C [18] was 80.1%. It also gave a viability, T/C [19] of 102%, a viability, T/C [20] of 89.4% and a viability, T/C [21] of 96.8%. It also gave a viability, T/C [22] of 87.6%, a viability, T/C [23] of 91.4% and a viability, T/C [24] of 78%. The viability, T/C [25] was 91.6%, the viability, T/C [26] was 86.9% and the viability, T/C [27] was 76.4%. The viability, T/C [28] was 89.5%, the viability, T/C [29] was 93.5% and the viability, T/C [30] was 62.5%. It also gave a viability, T/C [31] of 79%, a viability, T/C [32] of 68.6% and a viability, T/C [33] of 81.7%. For the same molecule, the viability, T/C [34] was 80.5%, the viability, T/C [35] was 80% and the viability, T/C [36] was 67.3%.
With `COc1ncnc(C2CC2)c1-c1ncc2cnn(Cc3ccc(-c4nc(C(F)(F)F)cn4C(C)C)cc3)c2n1` + Cc1[nH]c2ccc(F)cc2c1-c1nc2c3cccnc3c3ncccc3c2[nH]1 the IC50 (second compound 0.0316 µM) was > 10 µM, the IC50 (second compound 0.1 µM) was > 10 µM and the IC50 (second compound 0.316 µM) was > 10 µM. The IC50 (second compound 1 µM) was > 10 µM, the IC50 (second compound 3.16 µM) was > 10 µM and the IC50 (second compound 10 µM) was > 10 µM. The viability, T/C [1] was 98%, the viability, T/C [2] was 96.7% and the viability, T/C [3] was 92.9%. It also gave a viability, T/C [4] of 106%, a viability, T/C [5] of 112% and a viability, T/C [6] of 70%. For the same molecule, the viability, T/C [7] was 107%, the viability, T/C [8] was 93.9% and the viability, T/C [9] was 98.5%. It also gave a viability, T/C [10] of 98.4%, a viability, T/C [11] of 100% and a viability, T/C [12] of 71%. The viability, T/C [13] was 99.5%, the viability, T/C [14] was 91.9% and the viability, T/C [15] was 94.6%. The viability, T/C [16] was 106%, the viability, T/C [17] was 105% and the viability, T/C [18] was 65.6%. It also gave a viability, T/C [19] of 91%, a viability, T/C [20] of 86.3% and a viability, T/C [21] of 101%. It also gave a viability, T/C [22] of 96.3%, a viability, T/C [23] of 94.1% and a viability, T/C [24] of 67.8%. For the same molecule, the viability, T/C [25] was 76.5%, the viability, T/C [26] was 77.5% and the viability, T/C [27] was 73.3%. It also gave a viability, T/C [28] of 80.1%, a viability, T/C [29] of 98.4% and a viability, T/C [30] of 66.5%. For the same molecule, the viability, T/C [31] was 82.2%, the viability, T/C [32] was 73.5% and the viability, T/C [33] was 83.1%. It also gave a viability, T/C [34] of 81.8%, a viability, T/C [35] of 95.4% and a viability, T/C [36] of 73.8%.

Source: PubChem BioAssay AID2060492 (Molecular Pharmacology Branch, DTP, NCI, 2025)
